Target: T1, IL-17A (Homo sapiens, UniProt Q16552)
T1 sequence (Q16552 24-155): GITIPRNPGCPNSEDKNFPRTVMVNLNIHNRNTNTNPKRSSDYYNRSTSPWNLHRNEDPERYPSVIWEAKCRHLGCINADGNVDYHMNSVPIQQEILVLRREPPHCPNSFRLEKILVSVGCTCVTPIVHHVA
Experiment: Inhibition of IL-17A induced IL-6 release from dermal fibroblast cell line (HDF cell line assay)
Format: cell-based
Conditions: human dermal fibroblasts stimulated with IL-17A (50 pM) + TNF-α (25 pM); IL-6 measured by HTRF; pIC50 = -log10[IC50], IC50 molar
Description: Inhibition of IL-17A Induced IL-6 Release from Dermal Fibroblast Cell Line
The purpose of this assay is to test the neutralising ability to IL-17 proteins, in a human primary cell system. Stimulation of normal human dermal fibroblasts (HDF) with IL-17 alone produces only a very weak signal but in combination with certain other cytokines, such as TNFα, a synergistic effect can be seen in the production of inflammatory cytokines, i.e. IL-6.
HDFs were stimulated with IL-17A (50 pM) in combination with TNF-α (25 pM). The resultant IL-6 response was then measured using a homogenous time-resolved FRET kit from Cisbio. The kit utilises two monoclonal antibodies, one labelled with Eu-Cryptate (Donor) and the second with d2 or XL665 (Acceptor). The intensity of the signal is proportional to the concentration of IL-6 present in the sample (Ratio is calculated by 665/620×104).
The ability of a compound to inhibit IL-17 induced IL-6 release from human dermal fibroblasts is measured in this assay.
HDF cells (Sigma #106-05n) were cultured in complete media (DMEM+10% FCS+2 mM L-glutamine) and maintained in a tissue culture flask using standard techniques. Cells were harvested from the tissue culture flask on the morning of the assay using TrypLE (Invitrogen #12605036). The TrypLE was neutralised using complete medium (45 mL) and the cells were centrifuged at 300×g for 3 minutes. The cells were re-suspended in complete media (5 mL) counted and adjusted to a concentration of 3.125×10^4 cells/mL before being added to the 384 well assay plate (Corning #3701) at 40 μL per well. The cells were left for a minimum of three hours, at 37° C./5% CO2, to adhere to the plate.
Compounds were serially diluted in DMSO before receiving an aqueous dilution into a 384 well dilution plate (Greiner #781281), where 5 μL from the titration plate was transferred to 45 μL of complete media and mixed to give a solution containing 10% DMSO.
Mixtures of TNFα and IL-17 cytokine were prepared in complete media to final concentrations of TNFα 25 pM/IL-17A 50 pM, then 30 μL of the solution was added to a 384 well reagent plate (Greiner #781281).
10 μL from the aqueous dilution plate was transferred to the reagent plate containing 30 μL of the diluted cytokines, to give a 2.5% DMSO solution. The compounds were incubated with the cytokine mixtures for 5 h at 37° C. After the incubation, 10 μL was transferred to the assay plate, to give a 0.5% DMSO solution, then incubated for 18-20 h at 37° C./5% CO2.
From the Cisbio IL-6 FRET kit (Cisbio #62IL6PEB) europium cryptate and Alexa 665 were diluted in reconstitution buffer and mixed 1:1, as per kit insert. To a white low volume 384 well plate (Greiner #784075) were added FRET reagents (10 μL), then supernatant (10 μL) was transferred from the assay plate to Greiner reagent plate. The mixture was incubated at room temperature for 3 h with gentle shaking (<400 rpm) before being read on a Synergy Neo 2 plate reader (Excitation: 330 nm; Emission: […]).

Row | Compound | IC50 [nM]
1 | O=C([C@@H]1CCC(F)(F)CO1)N1CC[C@@](O)(C(F)(F)F)C[C@@H]1c1cnn2cc([C@@H](NC(=O)C3(F)CC3)C3CCC(F)(F)CC3)nc2n1 (single isomer, unassigned) [Example 21] | 398
2 | O=C([C@@H]1CCC(F)(F)CO1)N1CC[C@](O)(C(F)(F)F)C[C@H]1c1cnn2cc([C@@H](NC(=O)C3(F)CC3)C3CCC(F)(F)CC3)nc2n1 (single isomer, unassigned) [Example 20] | 15.8
3 | Cc1nonc1C(=O)N[C@H](c1cn2ncc([C@@H]3COCCN3C(=O)[C@@H]3CCC(F)(F)CO3)nc2n1)[C@H]1CC[C@H](C(F)(F)F)CC1 (single isomer, unassigned) [Example 24] | 10
4 | Cc1nonc1C(=O)N[C@H](c1cn2ncc([C@H]3C[C@H](O)CCN3C(=O)[C@@H]3CCC(F)(F)CO3)nc2n1)C1CCC(F)(F)CC1 (single isomer, unassigned) [Example 45] | 3.98
5 | Cc1nonc1C(=O)N[C@H](c1cn2ncc([C@@H]3C[C@H](O)CCN3C(=O)[C@@H]3CCC(F)(F)CO3)nc2n1)C1CCC(F)(F)CC1 (single isomer, unassigned) [Example 42] | 12.6
6 | CC(C)n1ncnc1C(=O)N[C@H](c1cn2ncc([C@H]3C[C@@H](O)CCN3C(=O)[C@@H]3CCC(F)(F)CO3)nc2n1)C1CCC(F)(F)CC1 (single isomer, unassigned) [Example 51] | 251
7 | O=C(N[C@H](c1cn2ncc([C@@H]3C[C@@](O)(C(F)(F)F)CCN3C(=O)C34CC(F)(C3)C4)nc2n1)C1CCC(F)(F)CC1)C1(F)CC1 (single isomer, unassigned) [Example 11] | 50.1
8 | CC(C)n1ncnc1C(=O)N[C@H](c1cn2ncc([C@@H]3C[C@](C)(O)CCN3C(=O)[C@@H]3CCC(F)(F)CO3)nc2n1)C1CCC(F)(F)CC1 (single isomer, unassigned) [Example 52] | 7.94
9 | Cc1nonc1C(=O)N[C@H](c1cn2ncc(C3(C(=O)N4CC(C(F)(F)F)C4)CCN(C4COC4)CC3)nc2n1)C1CCC(F)(F)CC1 [Example 55, N—[(S)-(4,4-Difluorocyclohexyl)(3-{1-(oxetan-3-yl)-4-[3-(trifluoromethyl)azetidine-1-carbonyl]piperidin-4-yl}imidazo[1,2-b][1,2,4]triazin-6-yl)methyl]-4-methyl-1,2,5-oxadiazole-3-carboxamide] | 63.1
10 | Cc1nonc1C(=O)N[C@H](c1cn2ncc(C3(C(=O)NCC(C)(F)F)CCOCC3)nc2n1)C1CCC(F)(F)CC1 [Example 17, N—[(S)-(4,4-Difluorocyclohexyl){3-[4-(2,2-difluoropropylcarbamoyl)tetrahydropyran-4-yl]imidazo[1,2-b][1,2,4]triazin-6-yl}methyl]-4-methyl-1,2,5-oxadiazole-3-carboxamide] | 12.6
11 | Cc1nonc1C(=O)N[C@H](c1cn2ncc([C@@H]3COCCN3C(=O)[C@@H]3CCC(F)(F)CO3)nc2n1)C1CCC(F)(F)CC1 (single isomer, unassigned) [Example 7] | 6.31
12 | Cc1nonc1C(=O)N[C@H](c1cn2ncc([C@H]3COCCN3C(=O)[C@@H]3CCC(F)(F)CO3)nc2n1)C(C1CC1)C1CC1 (single isomer, unassigned) [Example 6] | 100
13 | O=C(N[C@H](c1cn2ncc(C3CS(=O)(=O)CCN3C(=O)C34CC(F)(C3)C4)nc2n1)[C@H]1CC[C@H](C(F)(F)F)CC1)OCc1ccccc1 (stereo partly drawn) [Example 13, Benzyl N—[(S)-{3-[4-(3-fluorobicyclo[1.1.1]pentane-1-carbonyl)-1,1-dioxo-1,4-thiazinan-3-yl]imidazo[1,2-b][1,2,4]triazin-6-yl}[4-(trifluoromethyl)cyclohexyl]methyl]carbamate] | 50.1
14 | CC(C)n1nccc1C(=O)N[C@H](c1cn2ncc(C3(C(=O)NCC(C)(F)F)CCC(F)(F)CC3)nc2n1)C1CCC(F)(F)CC1 [Example 16, N—[(S)-(4,4-Difluorocyclohexyl){3-[1-(2,2-difluoropropylcarbamoyl)-4,4-difluoro-cyclohexyl]imidazo[1,2-b][1,2,4]triazin-6-yl}methyl]-2-isopropylpyrazole-3-carboxamide] | 12.6

Other lines, results leading:

Row | IC50 [nM] | Compound
15 | 158 | Cc1nonc1C(=O)N[C@H](c1cn2ncc([C@H]3C[C@](O)(C(F)(F)F)CCN3C(=O)C34CC(F)(C3)C4)nc2n1)C(C1CC1)C1CC1 (single isomer, unassigned) [Example 2]
16 | 631 | Cc1nonc1C(=O)N[C@H](c1cn2ncc([C@H]3C[C@@](O)(C(F)F)CCN3C(=O)C34CC(F)(C3)C4)nc2n1)C1CCC(F)(F)CC1 (single isomer, unassigned) [Example 29]
17 | 794 | Cc1nonc1C(=O)N[C@H](c1cn2ncc([C@H]3C[C@](C)(O)CCN3C(=O)C34CC(F)(C3)C4)nc2n1)C1CCC(F)(F)CC1 (single isomer, unassigned) [Example 41]
18 | 501 | Cc1nonc1C(=O)N[C@H](c1cn2ncc([C@H]3C[C@](O)(C(F)(F)F)CCN3C(=O)C34CC(F)(C3)C4)nc2n1)C1CCC(F)(F)CC1 (single isomer, unassigned) [Example 10]
19 | 79.4 | Cc1nonc1C(=O)N[C@H](c1cn2ncc([C@@H]3C[C@@](C)(O)CCN3C(=O)C34CC(F)(C3)C4)nc2n1)C1CCC(F)(F)CC1 (single isomer, unassigned) [Example 40]
20 | 6.31 | Cc1nonc1C(=O)N[C@H](c1cn2ncc([C@@H]3C[C@@](O)(C(F)(F)F)CCN3C(=O)C34CC(F)(C3)C4)nc2n1)C1CCC(F)(F)CC1 (single isomer, unassigned) [Example 9]
21 | 7.94 | Cc1nonc1C(=O)N[C@H](c1cn2ncc([C@@H]3C[C@@](O)(C(F)(F)F)CCN3C(=O)C34CC(F)(C3)C4)nc2n1)C(C1CC1)C1CC1 (single isomer, unassigned) [Example 1]
22 | 2.51 | Cc1nonc1C(=O)N[C@H](c1cn2ncc([C@@H]3C[C@@](O)(C(F)(F)F)CCN3C(=O)[C@@H]3CCC(F)(F)CO3)nc2n1)C1CCC(F)(F)CC1 (single isomer, unassigned) [Example 18]
23 | 100 | Cc1nonc1C(=O)N[C@H](c1cn2ncc([C@H]3C[C@](O)(C(F)(F)F)CCN3C(=O)[C@@H]3CCC(F)(F)CO3)nc2n1)C1CCC(F)(F)CC1 (single isomer, unassigned) [Example 19]
24 | 3.98 | Cc1nonc1C(=O)N[C@H](c1cn2ncc([C@@H]3C[C@](C)(O)CCN3C(=O)[C@@H]3CCC(F)(F)CO3)nc2n1)C1CCC(F)(F)CC1 (single isomer, unassigned) [Example 34]
25 | 5.01 | Cc1nonc1C(=O)N[C@H](c1cn2ncc([C@H]3C[C@](C)(O)CCN3C(=O)[C@@H]3CCC(F)(F)CO3)nc2n1)C1CCC(F)(F)CC1 (single isomer, unassigned) [Example 39]
26 | 794 | Cc1nonc1C(=O)N[C@H](c1cn2ncc([C@H]3C[C@@](C)(O)CCN3C(=O)C34CC(F)(C3)C4)nc2n1)C1CCC(F)(F)CC1 (single isomer, unassigned) [Example 37]
27 | 251 | Cc1nonc1C(=O)N[C@H](c1cn2ncc([C@H]3C[C@](O)(C(F)F)CCN3C(=O)C34CC(F)(C3)C4)nc2n1)C1CCC(F)(F)CC1 (single isomer, unassigned) [Example 27]
28 | 158 | Cc1nonc1C(=O)N[C@H](c1cn2ncc([C@H]3C[C@](O)(C(F)F)CCN3C(=O)[C@@H]3CCC(F)(F)CO3)nc2n1)C1CCC(F)(F)CC1 (single isomer, unassigned) [Example 23]

Source: US20240294534A1, “IMIDAZOTRIAZINE DERIVATIVES AS IL-17 MODULATORS” (UCB BIOPHARMA SRL, priority 2021, published 2024)
